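Test compounds were applied to cells in 96-well plates for 48 hours at 5 doses. At the GI50, growth is halved. The concentration for full growth arrest is given as TGI.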

Test systems include CAKI-1 renal; COLO 205 colon; K-562 leukemia; M14 melanoma; MDA-MB-231 breast; NCI-H226 lung; NCI/ADR-RES ovarian; OVCAR-8 ovarian; PC-3 prostate; SNB-75 CNS.
Common to all, as to experiment: DTP human tumour cell line panel, 48 h

`COc1cc2cc(C(=O)CCC(=O)O)sc2cc1OC`: the GI50 with CAKI-1 renal is greater than 100 µM; in the assay with COLO 205 colon, greater than 100 µM; in the assay on K-562 leukemia, greater than 100 µM; in the assay with M14 melanoma it was greater than 100 µM; in the assay with MDA-MB-231 breast it was greater than 100 µM; with NCI-H226 lung it was 47.4 µM. Besides, the GI50 with NCI/ADR-RES ovarian was greater than 100 µM; in the assay with OVCAR-8 ovarian it was greater than 100 µM; in the assay with PC-3 prostate, greater than 100 µM; with SNB-75 CNS it was 12.7 µM. Also, the TGI in the assay with CAKI-1 renal, with COLO 205 colon, in the assay on K-562 leukemia, in the assay with M14 melanoma, in the assay on MDA-MB-231 breast and in the assay with NCI-H226 lung was greater than 100 µM each time. Moreover, the TGI in the assay on NCI/ADR-RES ovarian, with OVCAR-8 ovarian, with PC-3 prostate and in the assay on SNB-75 CNS was greater than 100 µM each time.

As to `Cn1cc(C2=C(c3cn(CCO)c4ccccc34)C(=O)NC2=O)c2ccccc21`, the GI50 with CAKI-1 renal is 3.79 µM; in the assay with COLO 205 colon it was 1.25 µM; with K-562 leukemia it was 1.12 µM; with M14 melanoma, 2.12 µM; in the assay on MDA-MB-231 breast it was 5.98 µM; in the assay on NCI-H226 lung, 4.76 µM. In addition, the GI50 with NCI/ADR-RES ovarian is 5.6 µM; in the assay on OVCAR-8 ovarian, 5.48 µM; with PC-3 prostate it was 4.59 µM; with SNB-75 CNS it was 0.634 µM. The TGI is greater than 24.1 µM in the assay with CAKI-1 renal; 5.89 µM in the assay on COLO 205 colon; greater than 25 µM in the assay on K-562 leukemia; greater than 25 µM in the assay with M14 melanoma; greater than 22.4 µM with MDA-MB-231 breast; greater than 19.6 µM with NCI-H226 lung. The TGI with NCI/ADR-RES ovarian is greater than 22 µM; in the assay on OVCAR-8 ovarian it was greater than 21.9 µM; with PC-3 prostate, greater than 25 µM; with SNB-75 CNS it was 6.5 µM.

On to `Cc1nc(-c2ccccc2)c(Cc2ccccc2O)c(=O)[nH]1`, for which the TGI with CAKI-1 renal, in the assay with COLO 205 colon, in the assay with K-562 leukemia, in the assay with M14 melanoma, in the assay on MDA-MB-231 breast and with NCI-H226 lung was greater than 100 µM in each case. The TGI was greater than 100 µM with NCI/ADR-RES ovarian, greater than 100 µM in the assay with OVCAR-8 ovarian, greater than 100 µM with PC-3 prostate and 97.9 µM in the assay on SNB-75 CNS.

In the case of `C/C=C/C/C=C/CCC(=O)[C@H]1O[C@H]1C(N)=O`, the GI50 in the assay on CAKI-1 renal was 13.4 µM; in the assay with COLO 205 colon, 15.3 µM; with K-562 leukemia it was 19 µM; with M14 melanoma, 13.3 µM; with MDA-MB-231 breast it was 13.1 µM; in the assay on NCI-H226 lung, 15.1 µM. The GI50 is 17.7 µM with OVCAR-8 ovarian and 10 µM with SNB-75 CNS. The TGI was 36.5 µM with CAKI-1 renal; 31.5 µM in the assay on COLO 205 colon; greater than 86.8 µM in the assay with K-562 leukemia; 30 µM in the assay on M14 melanoma; 26.8 µM with MDA-MB-231 breast; 40.6 µM in the assay with NCI-H226 lung. Moreover, the TGI in the assay on NCI/ADR-RES ovarian was greater than 100 µM; in the assay with OVCAR-8 ovarian, greater than 74.3 µM; with PC-3 prostate, 40.7 µM; in the assay with SNB-75 CNS, 25 µM.

Turning to `O=[N+]([O-])c1ccccc1N=Nc1c(O)[nH]c2ccc(Br)cc12`, the TGI in the assay on CAKI-1 renal is 33.1 µM; in the assay with COLO 205 colon it was 33.9 µM; with K-562 leukemia, greater than 68.3 µM; in the assay on M14 melanoma, 44.7 µM; in the assay with MDA-MB-231 breast, 25.2 µM; in the assay on NCI-H226 lung, greater than 48.9 µM. Besides, the TGI is 40.6 µM in the assay on NCI/ADR-RES ovarian, 44 µM in the assay with OVCAR-8 ovarian, 33.3 µM with PC-3 prostate and 36.1 µM in the assay with SNB-75 CNS.

Regarding `Cn1ccnc1C(=O)/C=C/c1ccc(C(=O)Nc2ccc(S(F)(F)(F)(F)F)cc2)cc1`, the GI50 in the assay on CAKI-1 renal is 2.1 µM; in the assay with COLO 205 colon, 2 µM; with K-562 leukemia, 0.385 µM; in the assay on M14 melanoma it was 9.17 µM; in the assay on MDA-MB-231 breast, 2.33 µM; in the assay with NCI-H226 lung it was 6.57 µM. The GI50 with NCI/ADR-RES ovarian was 1.52 µM; in the assay on OVCAR-8 ovarian, 2.03 µM; with PC-3 prostate it was 1.9 µM; with SNB-75 CNS, 0.761 µM. Moreover, the TGI in the assay on CAKI-1 renal is greater than 14.3 µM; in the assay with COLO 205 colon, 12.3 µM; with K-562 leukemia, greater than 14.3 µM; in the assay with M14 melanoma, greater than 14.3 µM; in the assay on MDA-MB-231 breast, greater than 14.3 µM; in the assay with NCI-H226 lung, greater than 14.3 µM. Further, the TGI in the assay on NCI/ADR-RES ovarian, with OVCAR-8 ovarian, in the assay with PC-3 prostate and in the assay on SNB-75 CNS was greater than 14.3 µM throughout.

As for `Clc1ccc(/C=C/c2cc(N3CCOCC3)c3cc(Cl)c(Cl)cc3n2)cc1`, the GI50 with CAKI-1 renal is greater than 100 µM; with COLO 205 colon it was greater than 100 µM; in the assay with K-562 leukemia, greater than 100 µM; with M14 melanoma it was greater than 100 µM; in the assay on MDA-MB-231 breast, 11.1 µM; in the assay on NCI-H226 lung, greater than 100 µM. Further, the GI50 in the assay on NCI/ADR-RES ovarian is greater than 100 µM; in the assay on OVCAR-8 ovarian, greater than 100 µM; in the assay on PC-3 prostate, 1.61 µM; in the assay with SNB-75 CNS, greater than 100 µM. Moreover, the TGI in the assay with CAKI-1 renal, with COLO 205 colon, with K-562 leukemia, with M14 melanoma, in the assay with MDA-MB-231 breast and with NCI-H226 lung was greater than 100 µM in each case. Also, the TGI with NCI/ADR-RES ovarian, in the assay with OVCAR-8 ovarian, in the assay with PC-3 prostate and with SNB-75 CNS was greater than 100 µM throughout.

Regarding `CCN1/C(=C/C=C/c2n(-c3ccccc3)c3ccc(-c4nc5ccccc5s4)cc3[n+]2CC)N(c2ccccc2)c2ccc(-c3nc4ccccc4s3)cc21`, the GI50 in the assay on COLO 205 colon is 0.187 µM; in the assay on K-562 leukemia it was 0.471 µM; in the assay with M14 melanoma, 0.437 µM; in the assay with MDA-MB-231 breast it was 0.19 µM; in the assay on NCI-H226 lung, 0.317 µM; in the assay with NCI/ADR-RES ovarian, 3.55 µM. In addition, the figures for the GI50 in the assay on OVCAR-8 ovarian, with PC-3 prostate and with SNB-75 CNS were 0.304 µM, 0.284 µM and 0.347 µM, respectively. The TGI was 0.919 µM with COLO 205 colon; greater than 50 µM in the assay with K-562 leukemia; 4.62 µM in the assay on M14 melanoma; 1.68 µM with MDA-MB-231 breast; 15.6 µM in the assay with NCI-H226 lung; greater than 50 µM in the assay on NCI/ADR-RES ovarian. The TGI with OVCAR-8 ovarian is 5.82 µM; in the assay on PC-3 prostate it was greater than 50 µM; in the assay with SNB-75 CNS, greater than 46.7 µM.

These data come from PubChem BioAssay (NCI).
